According to patent US20110009416A1, “PH INDEPENDENT FORMULATIONS OF 6-(5-CHLORO-2-PYRIDYL)-5-[(4-METHYL-1-PIPERAZINYL)CARBONYLOXY]-7-OXO-6,7-DIHYDRO-5H-PYRROLO[3,4-b]PYRAZINE” (SEPRACOR INC., priority 2009, published 2011):

Assay: Dissolution over time of uncoated 3 mg eszopiclone tablets (Hanson SR8-Plus apparatus, fiber optic UV at 305 nm)
Type: physicochemical
Experimental: Dissolution over time of eszopiclone free base compounded with various solid acids was compared to that of free base at body temperature (37° C.) in dissolution media at various pH values using Hanson Research SR8—Plus Dissolution Apparatus and C-Technologies Fiber Optic UV Probes at 305 nm (excipients subtracted at 410 nm). The dissolution media used were (a) pH 1 (0.1N HCl) 50 ml of conc HCl mixed in 6 L of water; (b) pH 4.5 acetate buffer (20 mM) 5.88 g of sodium acetate trihydrate dissolved in 6 L of water, pH adjusted to 4.5 with acetic acid; (c) pH 5.5 phosphate buffer (20 mM) 16.3 g of potassium dihydrogen phosphate in 6 L of water. pH adjusted to 5.5 with NaOH; (d) pH 6.8 phosphate buffer (20 mM) 16.3 g of potassium dihydrogen phosphate in 6 L of water. pH adjusted 6.8 with NaOH. A standard dissolution protocol was used. The standard solution (0.006 mg/mL of eszopiclone free base) was prepared by weighing a known amount (−20 mg) of the free base into a 100 mL volumetric flask. 10 mL of acetonitrile was added into the flask and sonicated until the solids dissolved completely. The solution was cooled to room temperature and made up to the 100 mL mark using media and mixed well. Dilute 3 mL to 100 mL using media. The tables were prepared by transferring 500 mL dissolution media into the 6 vessels. Blank readings were taken for all the probes using media. Standards were read for individual vessels. Probes were washed with media and then inserted back into each vessel. […] The dissolution program was started immediately and readings were taken at 305 nm for 60 min (every 1 min for 20 min and then every 10 min)
The following tables display results of dissolution experiments in deionized (DI) water of uncoated tablets formed from 3 mg free base IR eszopiclone (with no more than 0.3% (R)-zopiclone) with various acids. […] The pH values of the media was measured using a pH paper, in-situ at various time points during the dissolution experiment run in deionized (DI) water of uncoated tablets formed from 3 mg free base IR eszopiclone with 12% L-malic acid. […]

## CN1CCN(C(=O)O[C@H]2c3nccnc3C(=O)N2c2ccc(Cl)cn2)CC1 [free base, [(9S)-8-(5-chloropyridin-2-yl)-7-oxo-2,5,8-triazabicyclo[4.3.0]nona-1,3,5-trien-9-yl]-4-methyl piperazine-1-carboxylate]
In water, FIG. 2 and FIG. 4, up to one hour
  dissolution profile in water (in words): slow and incomplete
In water, FIG. 4, one hour
  dissolved at one hour: less than 50%
pH 1, FIG. 3
  dissolution profile at pH 1 (in words): dissolve rapidly and completely
